In PMC9505425, “Targeting of the Mitochondrial TET1 Protein by Pyrrolo[3,2-b]pyrrole Chelators” (International Journal of Molecular Sciences, 2022):

Molecular target: T1, recombinant His-tagged TET1 protein (Homo sapiens, UniProt Q8NFU7)
T1 construct: purchased Active Motif, Carlsbad, CA, USA
Assay: Microscale thermophoresis binding to His-tagged TET1
Conditions: MST, HEPES pH 7.5, 50 nM TET1
Procedure: We observed a ligand concentration-dependent decrease in labeled protein fluorescence (Figure 5), and fluorescence measurements during serial dilution were performed to discriminate between binding-specific fluorescence quenching (Figure 6) and loss of fluorescence due to protein precipitation.
For this test, the remainder of tubes 1 to 3 and 14 to 16 prepared in the original binding assay were centrifuged for 10 min at 15,000× g. Thereafter, 10 μL of each sample was removed and mixed with an equal volume of SD-mix (4% SDS and […] (assay buffer)) and heated to 95 °C for 5 min to denature the protein. Subsequently, samples were loaded to standard capillaries, and the fluorescence was detected using a Monolith NT.115. […] The KD value was calculated from ligand concentration-dependent changes in normalized fluorescence (Fnorm) of the TET1 protein after 25 s of thermophoresis, based on the law of mass action using the NT. Affinity Analysis software. […]
Microscale thermophoresis (MST) is a sensitive method that can be used to assess biomolecular interactions and has been utilized to study interactions between a variety of binding partners of different molecular sizes. […] Signals were recorded using 20% MST power and 40% LED power after 25 s. Measurement was repeated two times, and data were analyzed using the NTAnalysis software. […]

T1 sequence (Q8NFU7 whole entry): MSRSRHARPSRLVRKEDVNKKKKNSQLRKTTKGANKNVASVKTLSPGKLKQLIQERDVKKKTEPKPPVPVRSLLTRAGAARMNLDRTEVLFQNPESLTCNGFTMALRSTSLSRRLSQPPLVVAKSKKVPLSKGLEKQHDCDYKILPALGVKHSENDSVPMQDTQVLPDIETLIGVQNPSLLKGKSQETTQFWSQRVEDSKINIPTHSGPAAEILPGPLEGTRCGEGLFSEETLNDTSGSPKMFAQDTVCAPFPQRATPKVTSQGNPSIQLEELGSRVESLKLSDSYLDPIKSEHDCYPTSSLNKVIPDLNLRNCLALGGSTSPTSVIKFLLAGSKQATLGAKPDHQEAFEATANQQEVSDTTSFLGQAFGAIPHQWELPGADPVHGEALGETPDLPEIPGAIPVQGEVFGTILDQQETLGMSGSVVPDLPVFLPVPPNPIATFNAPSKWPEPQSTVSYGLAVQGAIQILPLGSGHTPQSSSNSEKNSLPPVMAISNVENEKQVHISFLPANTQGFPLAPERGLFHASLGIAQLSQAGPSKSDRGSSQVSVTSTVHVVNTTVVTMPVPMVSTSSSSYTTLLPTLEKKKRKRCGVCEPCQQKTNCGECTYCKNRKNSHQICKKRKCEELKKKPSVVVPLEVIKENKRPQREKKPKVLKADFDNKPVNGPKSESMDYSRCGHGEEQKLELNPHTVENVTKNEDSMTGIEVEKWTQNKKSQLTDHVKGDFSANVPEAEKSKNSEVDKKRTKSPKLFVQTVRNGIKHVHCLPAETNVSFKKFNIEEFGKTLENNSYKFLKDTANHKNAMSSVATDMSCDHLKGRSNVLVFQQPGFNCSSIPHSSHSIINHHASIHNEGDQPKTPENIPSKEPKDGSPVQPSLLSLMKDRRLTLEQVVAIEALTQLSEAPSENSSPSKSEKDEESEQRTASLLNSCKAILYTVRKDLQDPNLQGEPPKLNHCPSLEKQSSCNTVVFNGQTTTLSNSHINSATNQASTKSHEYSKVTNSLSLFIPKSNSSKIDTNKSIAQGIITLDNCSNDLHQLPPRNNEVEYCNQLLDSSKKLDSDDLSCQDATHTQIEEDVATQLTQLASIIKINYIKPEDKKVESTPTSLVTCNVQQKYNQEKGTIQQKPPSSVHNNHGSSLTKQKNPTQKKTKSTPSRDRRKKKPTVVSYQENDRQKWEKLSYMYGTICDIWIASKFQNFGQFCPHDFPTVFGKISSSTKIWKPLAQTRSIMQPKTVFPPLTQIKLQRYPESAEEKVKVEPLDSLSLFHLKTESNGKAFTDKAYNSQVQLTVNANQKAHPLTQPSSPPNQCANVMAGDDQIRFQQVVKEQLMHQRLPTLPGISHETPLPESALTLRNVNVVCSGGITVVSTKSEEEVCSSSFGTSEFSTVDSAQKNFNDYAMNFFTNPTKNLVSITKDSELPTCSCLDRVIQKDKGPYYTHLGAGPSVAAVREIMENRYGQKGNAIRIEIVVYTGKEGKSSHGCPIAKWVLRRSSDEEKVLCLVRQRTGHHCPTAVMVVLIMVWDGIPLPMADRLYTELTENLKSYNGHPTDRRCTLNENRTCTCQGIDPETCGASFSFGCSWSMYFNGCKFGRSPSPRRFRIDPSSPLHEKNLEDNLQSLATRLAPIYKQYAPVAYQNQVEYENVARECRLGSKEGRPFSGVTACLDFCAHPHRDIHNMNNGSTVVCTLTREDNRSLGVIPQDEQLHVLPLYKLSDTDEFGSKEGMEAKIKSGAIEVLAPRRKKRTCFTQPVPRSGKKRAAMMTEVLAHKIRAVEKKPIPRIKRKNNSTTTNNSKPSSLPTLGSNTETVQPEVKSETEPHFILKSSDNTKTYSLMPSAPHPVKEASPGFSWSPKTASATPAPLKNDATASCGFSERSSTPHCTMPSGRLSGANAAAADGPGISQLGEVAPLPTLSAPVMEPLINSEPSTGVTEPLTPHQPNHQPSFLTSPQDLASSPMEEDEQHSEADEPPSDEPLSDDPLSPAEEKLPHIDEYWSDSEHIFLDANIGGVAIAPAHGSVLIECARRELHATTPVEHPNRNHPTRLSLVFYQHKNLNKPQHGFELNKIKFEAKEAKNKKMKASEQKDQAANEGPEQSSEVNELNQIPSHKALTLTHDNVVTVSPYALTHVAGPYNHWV

Cc1ccc(-n2c(-c3ccc(C(=O)NN)cc3)cc3c2cc(-c2ccc(C(=O)NN)cc2)n3-c2ccc(C)cc2)cc1 [Compound 1]
Kd: 27.2 ± 0.9 µM
